The text below walks through data of ChEMBL document CHEMBL1148572, “1-((S)-2-aminopropyl)-1H-indazol-6-ol: a potent peripherally acting 5-HT2 receptor agonist with ocular hypotensive activity” (J Med Chem, 2006).

The term Ki denotes a measure of affinity in units of concentration, obtained from inhibition or displacement. Read a low Ki as higher affinity. As usually defined, the inhibition is the relative decrease from the control value, in per cent. As usually defined, the logD is lipophilicity at a set pH, counting ionised and neutral species. In general, IC50 refers to the point on the concentration scale where inhibition reaches its midpoint. A word on the Papp A→B: it is how fast a substance crosses the layer from the apical side. Low readings indicate slow passage, high ones fast passage.

Data set [1] concerns the target T1, 5-hydroxytryptamine receptor 2C (Homo sapiens, UniProt P28335).
T1 sequence (P28335 whole entry): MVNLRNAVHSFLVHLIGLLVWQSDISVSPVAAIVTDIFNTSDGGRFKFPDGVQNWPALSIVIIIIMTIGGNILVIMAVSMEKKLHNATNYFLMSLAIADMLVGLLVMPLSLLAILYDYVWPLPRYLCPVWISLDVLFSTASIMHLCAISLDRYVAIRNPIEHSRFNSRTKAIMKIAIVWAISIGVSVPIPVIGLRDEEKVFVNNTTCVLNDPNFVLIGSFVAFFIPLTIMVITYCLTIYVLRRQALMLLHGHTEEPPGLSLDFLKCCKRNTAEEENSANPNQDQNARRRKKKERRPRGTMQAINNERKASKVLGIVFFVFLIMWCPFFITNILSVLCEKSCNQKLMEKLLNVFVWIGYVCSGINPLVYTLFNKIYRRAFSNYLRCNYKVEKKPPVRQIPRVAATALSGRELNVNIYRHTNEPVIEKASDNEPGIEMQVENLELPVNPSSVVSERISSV
Briefly: biochemical.
Description: Displacement of [125I]DOI from cloned human 5HT2C receptor expressed in CHO cells

Data set [2] concerns the target Sodium-dependent serotonin transporter (Homo sapiens, UniProt P31645). The data set can be described thus: Inhibitory activity against SERT.
Data set [3] deals with 5-hydroxytryptamine receptor 2A (Homo sapiens, UniProt P28223). It counts as cell-based, CHO.
5-hydroxytryptamine receptor 2A (Homo sapiens, UniProt P28223), sequence (P28223 whole entry): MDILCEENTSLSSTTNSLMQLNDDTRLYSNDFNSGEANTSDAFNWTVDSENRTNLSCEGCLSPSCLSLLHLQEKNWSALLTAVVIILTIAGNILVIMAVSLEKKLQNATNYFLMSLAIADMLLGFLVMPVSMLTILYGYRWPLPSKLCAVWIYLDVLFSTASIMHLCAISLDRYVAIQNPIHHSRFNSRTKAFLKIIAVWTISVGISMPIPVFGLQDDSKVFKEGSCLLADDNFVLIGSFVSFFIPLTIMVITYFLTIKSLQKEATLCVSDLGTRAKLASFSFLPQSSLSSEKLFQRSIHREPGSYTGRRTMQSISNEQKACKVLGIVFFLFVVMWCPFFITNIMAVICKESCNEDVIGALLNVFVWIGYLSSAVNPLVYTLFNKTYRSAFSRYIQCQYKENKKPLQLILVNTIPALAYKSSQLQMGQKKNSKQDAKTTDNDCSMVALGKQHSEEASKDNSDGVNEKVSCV
The target in data set [4] is Glutamate receptor ionotropic kainate (Homo sapiens) (UniProt P39086+Q16478+Q16099+Q13002+Q13003). The data set can be described thus: Inhibition of kainate receptor at 10 uM. In kind it is protein-complex assay.
Data set [5] addresses T2, Endothelin-1 receptor (Homo sapiens) (UniProt P25101).
T2 sequence (whole entry): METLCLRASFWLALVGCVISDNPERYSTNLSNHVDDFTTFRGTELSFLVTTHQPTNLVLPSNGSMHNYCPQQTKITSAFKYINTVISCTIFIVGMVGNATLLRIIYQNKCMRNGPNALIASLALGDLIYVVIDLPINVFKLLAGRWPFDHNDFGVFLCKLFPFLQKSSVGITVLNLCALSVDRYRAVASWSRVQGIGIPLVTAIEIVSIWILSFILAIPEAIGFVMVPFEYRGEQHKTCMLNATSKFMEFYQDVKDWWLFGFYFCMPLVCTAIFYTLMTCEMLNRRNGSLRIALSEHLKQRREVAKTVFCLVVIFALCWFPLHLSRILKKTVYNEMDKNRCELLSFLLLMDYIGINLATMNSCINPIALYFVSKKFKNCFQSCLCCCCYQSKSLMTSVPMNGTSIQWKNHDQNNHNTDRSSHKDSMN
The data set can be described thus: Inhibition of human recombinant endothelin 1 receptor 1 nM.

The target in data set [6] is Sigma non-opioid intracellular receptor 1 (Homo sapiens) (UniProt Q99720). Briefly: Inhibition of non selective binding to sigma receptor at 1 nM.
Sigma non-opioid intracellular receptor 1 (Homo sapiens), sequence (Q99720 whole entry): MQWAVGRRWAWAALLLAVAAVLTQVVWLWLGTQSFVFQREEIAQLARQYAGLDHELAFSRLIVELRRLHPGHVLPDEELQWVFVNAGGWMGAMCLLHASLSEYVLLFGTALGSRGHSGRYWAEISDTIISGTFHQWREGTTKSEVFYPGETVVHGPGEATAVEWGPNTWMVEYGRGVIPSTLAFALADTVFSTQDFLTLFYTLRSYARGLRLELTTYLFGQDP
The nature of data set [7]: Distribution coefficient at pH 7.4. Particulars: octanol/water. In kind it is physicochemical.
The target in data set [8] is Epidermal growth factor receptor (Homo sapiens) (UniProt P00533). The data set can be described thus: Inhibition of EGFR at 10 uM.
Epidermal growth factor receptor (Homo sapiens), sequence (P00533 whole entry): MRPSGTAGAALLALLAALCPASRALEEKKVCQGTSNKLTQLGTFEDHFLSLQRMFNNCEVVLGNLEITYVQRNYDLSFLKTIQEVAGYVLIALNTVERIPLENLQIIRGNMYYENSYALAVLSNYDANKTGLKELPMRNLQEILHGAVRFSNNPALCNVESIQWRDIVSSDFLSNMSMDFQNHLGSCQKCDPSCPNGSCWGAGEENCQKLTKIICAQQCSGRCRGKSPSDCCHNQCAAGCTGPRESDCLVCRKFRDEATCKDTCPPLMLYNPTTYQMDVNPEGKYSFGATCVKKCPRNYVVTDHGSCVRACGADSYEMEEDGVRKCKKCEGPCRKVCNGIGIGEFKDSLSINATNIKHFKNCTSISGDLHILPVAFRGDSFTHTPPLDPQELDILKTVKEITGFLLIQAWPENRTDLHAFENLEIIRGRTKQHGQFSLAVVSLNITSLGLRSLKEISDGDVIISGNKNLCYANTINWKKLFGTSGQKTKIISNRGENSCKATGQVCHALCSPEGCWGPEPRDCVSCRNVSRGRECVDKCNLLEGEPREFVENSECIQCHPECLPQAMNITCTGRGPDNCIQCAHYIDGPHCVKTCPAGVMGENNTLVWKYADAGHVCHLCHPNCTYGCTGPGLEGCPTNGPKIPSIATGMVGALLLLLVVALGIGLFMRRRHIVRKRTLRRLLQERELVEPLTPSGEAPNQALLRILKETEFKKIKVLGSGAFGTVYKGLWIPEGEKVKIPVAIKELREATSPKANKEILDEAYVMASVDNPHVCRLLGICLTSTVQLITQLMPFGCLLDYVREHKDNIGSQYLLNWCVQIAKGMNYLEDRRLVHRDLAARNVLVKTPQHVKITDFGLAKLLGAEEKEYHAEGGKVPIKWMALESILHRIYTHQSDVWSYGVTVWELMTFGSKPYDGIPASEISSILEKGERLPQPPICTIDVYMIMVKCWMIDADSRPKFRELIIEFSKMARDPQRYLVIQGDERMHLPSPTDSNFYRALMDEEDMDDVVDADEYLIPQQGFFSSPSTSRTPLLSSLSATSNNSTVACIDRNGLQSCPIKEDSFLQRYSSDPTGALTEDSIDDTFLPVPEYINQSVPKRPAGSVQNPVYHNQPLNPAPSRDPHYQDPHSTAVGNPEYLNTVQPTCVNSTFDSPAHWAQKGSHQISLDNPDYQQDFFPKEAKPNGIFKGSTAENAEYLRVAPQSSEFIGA
A short description of data set [9]: Inhibitory activity at calcium activated potassium channel 6 at 10 uM.
In data set [10] the target is Epidermal growth factor receptor (Homo sapiens) (UniProt P00533). The data set can be described thus: Inhibition of EGFR at 1 nM.
Data set [11] has as its target Sigma non-opioid intracellular receptor 1 (Homo sapiens) (UniProt Q99720). The data set can be described thus: Inhibition of non selective binding to sigma receptor at 100 nM.
Data set [12] deals with T3, Type-1 angiotensin II receptor (Homo sapiens) (UniProt P30556).
T3 sequence (whole entry): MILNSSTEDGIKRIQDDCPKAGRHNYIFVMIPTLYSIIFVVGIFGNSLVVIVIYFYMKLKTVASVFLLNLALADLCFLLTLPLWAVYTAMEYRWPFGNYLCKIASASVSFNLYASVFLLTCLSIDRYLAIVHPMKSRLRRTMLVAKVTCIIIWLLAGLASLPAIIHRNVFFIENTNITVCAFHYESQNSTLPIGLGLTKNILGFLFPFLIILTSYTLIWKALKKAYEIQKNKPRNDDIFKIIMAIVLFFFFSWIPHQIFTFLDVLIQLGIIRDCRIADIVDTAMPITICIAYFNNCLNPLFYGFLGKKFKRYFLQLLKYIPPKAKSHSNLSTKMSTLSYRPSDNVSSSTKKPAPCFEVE
The data set can be described thus: Inhibition of type 1 angiotensin 2 receptor at 100 nM.

The target of data set [13] is Adrenergic receptor beta (Homo sapiens) (UniProt P08588+P07550+P13945). Briefly: Inhibition of non selective binding to adrenergic beta receptor at 10 uM. In kind it is protein assay.
Data set [14] has as its target T4, monoamine oxidase B (MAO-B) (Rattus norvegicus, UniProt P19643).
T4 sequence (P19643 whole entry): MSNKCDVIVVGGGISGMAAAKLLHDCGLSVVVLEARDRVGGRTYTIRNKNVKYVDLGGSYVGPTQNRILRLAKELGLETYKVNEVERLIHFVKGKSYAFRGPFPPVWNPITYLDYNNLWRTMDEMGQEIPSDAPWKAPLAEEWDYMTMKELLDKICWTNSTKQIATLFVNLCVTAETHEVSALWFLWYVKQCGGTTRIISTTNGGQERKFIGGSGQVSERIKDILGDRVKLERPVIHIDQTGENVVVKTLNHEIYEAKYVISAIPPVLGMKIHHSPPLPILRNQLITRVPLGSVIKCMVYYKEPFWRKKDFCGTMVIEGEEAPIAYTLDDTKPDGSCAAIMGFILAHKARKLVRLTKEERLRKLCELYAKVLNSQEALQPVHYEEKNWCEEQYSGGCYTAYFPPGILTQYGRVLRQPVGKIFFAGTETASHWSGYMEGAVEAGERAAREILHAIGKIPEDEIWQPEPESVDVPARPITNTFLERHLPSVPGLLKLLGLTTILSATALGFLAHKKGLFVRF
The data set can be described thus: Inhibition of monoamine oxidase B in rat brain at 1 nM. It counts as tissue-based.

In data set [15] the target is Opioid receptors; mu/kappa/delta (Homo sapiens) (UniProt P41145+P41143+P35372). Briefly: Inhibition of non selective binding to opiate receptor at 100 nM. In kind it is protein assay.
Opioid receptors; mu/kappa/delta (Homo sapiens), sequence (P35372 whole entry, looked up): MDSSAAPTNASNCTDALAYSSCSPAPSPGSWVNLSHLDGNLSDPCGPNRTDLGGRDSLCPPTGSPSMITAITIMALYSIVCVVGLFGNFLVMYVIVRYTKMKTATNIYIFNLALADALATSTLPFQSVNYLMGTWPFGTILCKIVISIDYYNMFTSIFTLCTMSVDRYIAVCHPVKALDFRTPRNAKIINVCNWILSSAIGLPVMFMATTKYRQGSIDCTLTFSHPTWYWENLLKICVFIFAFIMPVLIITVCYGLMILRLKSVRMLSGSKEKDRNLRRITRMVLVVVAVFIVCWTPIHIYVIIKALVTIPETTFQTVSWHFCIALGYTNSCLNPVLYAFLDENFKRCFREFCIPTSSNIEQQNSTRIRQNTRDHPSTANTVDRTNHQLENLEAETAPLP
Opioid receptors; mu/kappa/delta (Homo sapiens), sequence (P41143 whole entry, looked up): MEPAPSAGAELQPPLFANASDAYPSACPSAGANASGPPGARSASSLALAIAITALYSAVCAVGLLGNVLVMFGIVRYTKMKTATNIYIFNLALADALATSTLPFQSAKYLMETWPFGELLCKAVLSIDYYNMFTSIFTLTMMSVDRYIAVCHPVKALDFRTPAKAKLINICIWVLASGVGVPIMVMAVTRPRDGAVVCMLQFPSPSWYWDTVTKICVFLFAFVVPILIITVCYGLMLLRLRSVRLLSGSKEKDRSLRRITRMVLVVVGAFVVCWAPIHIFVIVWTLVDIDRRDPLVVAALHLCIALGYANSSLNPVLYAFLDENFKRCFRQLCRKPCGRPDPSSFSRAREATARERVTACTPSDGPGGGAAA
Opioid receptors; mu/kappa/delta (Homo sapiens), sequence (P41145 whole entry, looked up): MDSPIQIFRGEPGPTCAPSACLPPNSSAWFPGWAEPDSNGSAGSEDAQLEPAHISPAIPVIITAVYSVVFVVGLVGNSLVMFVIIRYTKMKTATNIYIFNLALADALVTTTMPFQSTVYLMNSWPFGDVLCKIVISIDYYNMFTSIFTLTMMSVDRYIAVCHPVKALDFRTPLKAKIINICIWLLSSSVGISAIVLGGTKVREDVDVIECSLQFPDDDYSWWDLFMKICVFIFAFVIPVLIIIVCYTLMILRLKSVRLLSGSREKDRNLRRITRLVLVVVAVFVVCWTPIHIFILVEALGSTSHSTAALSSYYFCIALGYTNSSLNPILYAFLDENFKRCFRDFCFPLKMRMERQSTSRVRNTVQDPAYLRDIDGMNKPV
Data set [16] deals with Muscarinic acetylcholine receptor (Homo sapiens) (UniProt P20309+P08173+P11229+P08172+P08912). Briefly: Inhibition of non selective binding to muscarinic receptor at 1 nM. It counts as protein assay.
The target of data set [17] is 5-hydroxytryptamine receptor 2A (Rattus norvegicus, UniProt P14842). It counts as tissue-based, Cerebral cortex.
5-hydroxytryptamine receptor 2A (Rattus norvegicus, UniProt P14842), sequence (P14842 whole entry): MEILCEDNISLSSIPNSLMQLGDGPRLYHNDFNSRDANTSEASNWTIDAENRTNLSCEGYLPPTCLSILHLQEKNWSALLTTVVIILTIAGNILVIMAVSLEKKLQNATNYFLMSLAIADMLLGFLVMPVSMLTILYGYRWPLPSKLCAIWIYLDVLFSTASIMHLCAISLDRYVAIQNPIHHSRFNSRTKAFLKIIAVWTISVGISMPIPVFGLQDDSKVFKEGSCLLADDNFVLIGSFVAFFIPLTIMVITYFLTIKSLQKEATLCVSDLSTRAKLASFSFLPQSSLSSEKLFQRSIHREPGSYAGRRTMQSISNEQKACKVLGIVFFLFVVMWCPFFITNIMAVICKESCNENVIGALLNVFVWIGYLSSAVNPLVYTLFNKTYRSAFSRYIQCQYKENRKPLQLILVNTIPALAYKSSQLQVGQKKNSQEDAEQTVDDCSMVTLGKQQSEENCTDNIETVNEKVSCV
The target in data set [18] is T5, GABA-A receptor; agonist GABA site (Homo sapiens) (UniProt P14867+P47870+P28472+P48169+P34903+P18505+P47869+P31644+Q16445). The data set can be described thus: Inhibition of agonist site of GABAA receptor at 100 nM. In kind it is functional.
Data set [19] deals with Estrogen receptor (Homo sapiens) (UniProt Q92731+P03372). Briefly: Inhibition of estrogen receptor at 10 uM. In kind it is protein assay.
For the next data set, the system named is MDR1 (P-gp). The data set can be described thus: Permeability from apical to basolateral side of the MDCK cell transfected with human MDR1. In kind it is ADME, cell-based.
In data set [20] the target is Alpha-1B adrenergic receptor (Homo sapiens, UniProt P35368). The data set can be described thus: Inhibitory activity against adrenergic alpha-1B receptor.
Alpha-1B adrenergic receptor, sequence (P35368 whole entry): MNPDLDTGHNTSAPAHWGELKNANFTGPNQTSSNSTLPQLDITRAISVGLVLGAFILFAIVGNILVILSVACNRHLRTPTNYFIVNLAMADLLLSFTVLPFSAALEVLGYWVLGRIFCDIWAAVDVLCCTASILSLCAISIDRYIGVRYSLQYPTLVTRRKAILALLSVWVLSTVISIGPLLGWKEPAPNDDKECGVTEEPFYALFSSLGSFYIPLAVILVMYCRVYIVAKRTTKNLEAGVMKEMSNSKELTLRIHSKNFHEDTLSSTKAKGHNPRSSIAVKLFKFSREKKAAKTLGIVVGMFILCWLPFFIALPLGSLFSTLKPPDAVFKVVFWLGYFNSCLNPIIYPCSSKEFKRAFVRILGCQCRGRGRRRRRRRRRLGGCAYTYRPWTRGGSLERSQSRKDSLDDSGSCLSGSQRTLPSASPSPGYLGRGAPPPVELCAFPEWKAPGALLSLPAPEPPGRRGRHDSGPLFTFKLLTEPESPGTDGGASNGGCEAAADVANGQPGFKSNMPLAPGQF
The target in data set [21] is T5, GABA-A receptor; agonist GABA site (Homo sapiens). The data set can be described thus: Inhibition of agonist site of GABAA receptor at 10 uM. In kind it is functional.
A short description of data set [22]: Inhibitory activity at site 2 of sodium channel at 1 nM.

Sodium-dependent serotonin transporter, sequence (P31645 whole entry): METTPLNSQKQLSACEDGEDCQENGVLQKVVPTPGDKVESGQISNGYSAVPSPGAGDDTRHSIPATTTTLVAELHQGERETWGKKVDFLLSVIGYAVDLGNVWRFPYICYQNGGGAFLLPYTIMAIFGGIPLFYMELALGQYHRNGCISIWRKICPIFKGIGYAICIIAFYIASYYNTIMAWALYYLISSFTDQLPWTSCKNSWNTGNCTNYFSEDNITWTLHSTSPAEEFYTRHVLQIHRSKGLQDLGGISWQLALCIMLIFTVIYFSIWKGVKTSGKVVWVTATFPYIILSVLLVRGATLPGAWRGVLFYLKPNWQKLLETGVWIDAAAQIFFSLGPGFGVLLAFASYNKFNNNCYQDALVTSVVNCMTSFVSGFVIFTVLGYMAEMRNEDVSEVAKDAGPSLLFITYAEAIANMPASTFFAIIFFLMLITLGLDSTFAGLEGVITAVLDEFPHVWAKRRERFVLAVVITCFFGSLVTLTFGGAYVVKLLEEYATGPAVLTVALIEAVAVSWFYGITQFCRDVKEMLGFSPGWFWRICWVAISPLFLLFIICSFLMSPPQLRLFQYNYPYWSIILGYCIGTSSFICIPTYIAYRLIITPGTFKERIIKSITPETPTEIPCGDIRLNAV

Take `C[C@H](N)Cn1ncc2ccc(O)cc21`: the Ki in [1] is 3 nM; in [2] it was > 10 µM; in data set [3] it was 12 nM; in [20] it was > 30 µM. For the same molecule, the inhibition is 6.62% in data set [4]; 2.41% in [5]; -2.35% in data set [6]; -5.17% in [8]; -8.15% in data set [9]; 1.44% in data set [10]. In addition, the inhibition is 0.17% in data set [11]; 7.33% in data set [12]; 30.4% in [13]; -2.14% in [15]; -0.51% in data set [16]; -0.91% in [18]. Besides, the results for the inhibition in data set [19], in data set [21] and in [22] were 17.7%, 6.69% and 10.3%, respectively. Besides, the logD in [7] is 0.693. Also, the inhibition at 0.001 µM in data set [14] was -15.4%. For the same molecule, in data set [17], the IC50 worked out at 0.58 nM. This molecule also showed a Papp A→B in the data set with MDR1 (P-gp) of 0.76 ×10⁻⁶ cm/s.
